From article PMC11603770, “Validating anti-inflammatory and cytotoxic properties of Fagonia cretica L. through metabolic, in vitro, and in silico profiling” (BMC Complementary Medicine and Therapies, 2024)
Converted amounts (≈) assume the structure as drawn.

Tests used:
Format in all cases: cell-based
[1] = test system: nitric oxide formation by LPS-stimulated RAW 264.7 murine macrophage cells; test: Nitric oxide inhibitory assay (Griess nitrite assay); settings: Mus musculus, RAW264.7; LPS-stimulated RAW 264.7, 24 h
Description: RAW 264.7 murine macrophage cells were stimulated by LPS (Lipopolysaccharide) to produce inflammatory mediators as NO, the produced nitrite (NO2-) was measured using the Griess reagent, RAW 264.7 murine macrophage-like cells were grown in phenol red-free RPMI-1640 containing 10% FBS. Cells were incubated for 24 h with LPS ([…]) in the presence of different concentrations of the plant extract. Then 50 µl of supernatant from each well of cell culture was transferred into 96-well microplates and equal volume of Griess reagent (1% sulfanilamide, 0.1% N-(1-naphthyl)-ethylenediamine hydrochloride, 2.5% H3PO4) was then added to the supernatant at room temperature. The absorbance at 550 nm was determined in UV-Vis microplate reader after 10 min. The concentrations of nitrite were derived from regression analysis using serial dilutions of sodium nitrite as a standard. Percentage of inhibition was calculated based on the ability of the extract to inhibit nitric oxide formation by cells compared with the control (cells in the media without the extract containing triggering agents and DMSO), which was considered as 0% inhibition.

[2] = test system: CACO2 cells (intestinal carcinoma cell line); test: MTT viability assay, CACO2; settings: Homo sapiens, Caco-2, 24 h
Description: The Cytotoxic activity was tested using the viability assay following the method reported by Mosmann, T., 1983 [21, 22]. HepG2 cells (liver carcinoma cell line), MCF-7cells (breast carcinoma cell line) and CACO2 cells (intestinal carcinoma cell line) (American Type Culture Collection ATCC, Rockville, MD) were applied through the tissue Culture Unit, the Egyptian Organization for Biological Products and Vaccines, Vacsera, Egypt. In brief, the tumor cell lines were suspended in medium at concentration 5 × 10^4 cell/ well in Corning® 96-well tissue culture plates and then incubated for 24 h. The alcoholic extract of F. cretica was then added into 96-well plates (three replicates) to achieve twelve concentrations. Six vehicle controls with media or 0.5% DMSO were run for each 96 well plate as a control. After incubating for 24 h, the number of viable cells was determined by the MTT test. Briefly, the media was removed from the 96 well plates and replaced with 100 µl of fresh culture RPMI 1640 medium without phenol red then 10 µl of the 12 mM MTT stock solution (5 mg of MTT in 1 ml of PBS) to each well including the untreated controls. […] Then, the optical density (OD) was measured at 590 nm with the microplate reader (SunRise, TECAN, Inc, USA) to determine the number of viable cells and the percentage of viability was calculated as follows: […]

Caspase-9 (human) = test: Caspase-9 level ELISA in MCF-7
Description: To measure caspase-9 levels, DRG® Caspase-9 (human) ELISA (EIA-4860) kits were used. In brief, the breast cancer cell line (MCF-7) extracts were prepared after elevation of apoptosis. The extracts were suspended in lysis buffer, and incubated at room temperature for 60 min and then centrifuge for 15 min. The microwell strips were washed with 400 µl wash buffer, followed by addition of 100 µl of sample diluent in duplicate to all standard wells, 100 µl of sample diluent in duplicate to the blank wells, 50 µl of sample diluent to the sample, and 50 µl of each sample in duplicate to the sample wells. Then the detection antibody 50 µl was added to all wells and incubated for 2 h at room temperature. The diluted antirabbit-IgG-HRP (anti-rabbit-immunoglobulin G-horseradish peroxidase) 100 µl was added to all wells together with blank wells. TMB substrate solution 100 µl was added to all wells and incubated for 15 min. at room temperature. Finally, the enzyme reaction was stopped by adding 100 µl of the stop solution to all wells. The absorbance of each microwell was measured at 450 nm using a spectrophotometer. The absorbance of the samples and standard were recorded.

Row | IC50 [2] | SMILES | IC50 [1] | Caspase-9 level induction (Caspase-9 (human); MCF-7) | Caspase-9 (Conc.) (Caspase-9 (human); breast human carcinoma cell line (MCF-7), control 2.986 ± 0.31)
1 |  | O=C1O[C@H]([C@@H](O)CO)C(O)=C1O [Ascorbic acid] | 18.7 ± 0.77 µg/mL (≈ 106 µM) |  | 
2 | 7.75 ± 0.4 µg/mL (≈ 14.3 µM) | COc1cccc2c1C(=O)c1c(O)c3c(c(O)c1C2=O)C[C@@](O)(C(=O)CO)C[C@@H]3O[C@H]1C[C@H](N)[C@H](O)[C@H](C)O1 [Doxorubicin] |  | 8.67 folds | 25.84 ± 0.39 ng/mL
